Assay results: US12077503B2, “Substituted cyclic amides and their use as herbicides” (FMC CORPORATION, priority 2015, dated 2024)
Where two headings read alike, the source gives them in different places.

Legend:
Format in all cases: in vivo
[1] = tested on: barnyardgrass (Echinochloa crus-galli); assay: Test B flooded paddy test; settings: Echinochloa crus-galli, 250 g ai/ha, Flood
Outline: (§1)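 Response scored visually against untreated controls, 0 = no effect and 100 = complete control, 13–15 d after treatment in the greenhouse. Compounds added to paddy water held 3 cm above soil surface. Treatment given at 2-leaf stage.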

[2] = tested on: ducksalad (Heteranthera limosa); assay: Test B flooded paddy test; settings: Heteranthera limosa, 250 g ai/ha, Flood
Outline: as §1

[3] = tested on: sedge, umbrella (small-flower umbrella sedge, Cyperus difformis); assay: Test B flooded paddy test; settings: Cyperus difformis, 360 h, Flood, 250 g ai/ha; visually evaluated after 13 to 15 d; read-out: Plant response rating, Sedge, Umbrella (0 to 100 scale where 0 is no effect and 100 is complete control)
Outline: as §1

rice (Oryra sativa) = assay: Test B flooded paddy test; settings: Oryza sativa, 250 g ai/ha, Flood
Outline: as §1

[4] = tested on: barnyardgrass (Echinochloa crus-galli); assay: Test A preemergence; settings: Echinochloa crus-galli, pre-emergence, 240 h; for pest or weed control at 500 g/ha: 500 g ai/ha, preemergence; for pest or weed control at 125 g/ha: Preemergence, 125 g ai/ha
Outline: (§2)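 Treatment is preemergence as a directed soil spray after planting, or postemergence at the one- to two-leaf stage, with test chemical in a non-phytotoxic solvent mixture plus surfactant. Plants stay in the greenhouse about 10 d before visual injury scoring on a 0 to 100 scale versus untreated controls.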

[5] = tested on: ragweed (common ragweed, Ambrosia elatior); assay: Test A preemergence; settings: Ambrosia artemisiifolia, pre-emergence, 240 h; for pest or weed control at 500 g/ha: 500 g ai/ha, preemergence; for pest or weed control at 125 g/ha: Preemergence, 125 g ai/ha
Outline: as §2

[6] = tested on: ryegrass, Italian (Italian ryegrass, Lolium multiflorum); assay: Test A preemergence; settings: Lolium multiflorum, pre-emergence, 240 h, 0 to 100 scale (0 no effect, 100 complete control), read-out: Plant response rating, Ryegrass, Italian; for pest or weed control at 125 g/ha: Preemergence, 125 g ai/ha
Outline: as §2

[7] = tested on: giant foxtail (Setaria faberii); assay: Test A preemergence; settings: Setaria faberi, pre-emergence, 240 h; for pest or weed control at 500 g/ha: 500 g ai/ha, preemergence; for pest or weed control at 125 g/ha: Preemergence, 125 g ai/ha
Outline: as §2

[8] = tested on: pigweed (Amaranthus retroflexus); assay: Test A preemergence; settings: Amaranthus retroflexus, pre-emergence, 240 h; for pest or weed control at 500 g/ha: 500 g ai/ha, preemergence; for pest or weed control at 125 g/ha: Preemergence, 125 g ai/ha
Kochia (Kochia scoparia) = assay: Test A preemergence; settings: Bassia scoparia, pre-emergence, 240 h; for pest or weed control at 500 g/ha: 500 g ai/ha, preemergence; for pest or weed control at 125 g/ha: Preemergence, 125 g ai/ha
Outline: as §2

[9] = tested on: blackgrass (Alopecurus myosuroides); assay: Test A postemergence; settings: Alopecurus myosuroides, post-emergence, 240 h, Postemergence; for pest or weed control at 125 g/ha: 125 g ai/ha, visual rating about 10 d after treatment, read-out: Blackgrass plant response rating (0 to 100 scale); for pest or weed control at 500 g/ha: 500 g ai/ha, visual injury, 0 to 100 scale (0 no effect, 100 complete control), approx. 10 d, read-out: Plant response rating, Blackgrass
Outline: as §2

[10] = tested on: ryegrass, Italian (Italian ryegrass, Lolium multiflorum); assay: Test A postemergence; settings: Lolium multiflorum, post-emergence, 240 h, Postemergence; for pest or weed control at 125 g/ha: 125 g ai/ha, visual rating about 10 d after treatment, read-out: Ryegrass, Italian plant response rating (0 to 100 scale); for pest or weed control at 500 g/ha: 500 g ai/ha, visual injury, 0 to 100 scale (0 no effect, 100 complete control), approx. 10 d, read-out: Plant response rating, Ryegrass, Italian
Outline: as §2

[11] = tested on: giant foxtail (Setaria faberii); assay: Test A postemergence; settings: Setaria faberi, post-emergence, 240 h, Postemergence; for pest or weed control at 125 g/ha: 125 g ai/ha, visual rating about 10 d after treatment, read-out: Foxtail, Giant plant response rating (0 to 100 scale); for pest or weed control at 500 g/ha: 500 g ai/ha, visual injury, 0 to 100 scale (0 no effect, 100 complete control), approx. 10 d, read-out: Plant response rating, Foxtail, Giant
Outline: as §2

[12] = tested on: pigweed (Amaranthus retroflexus); assay: Test A postemergence; settings: Amaranthus retroflexus, post-emergence, 240 h, Postemergence; for pest or weed control at 125 g/ha: 125 g ai/ha, visual rating about 10 d after treatment, read-out: Pigweed plant response rating (0 to 100 scale); for pest or weed control at 500 g/ha: 500 g ai/ha, visual injury, 0 to 100 scale (0 no effect, 100 complete control), approx. 10 d, read-out: Plant response rating, Pigweed
Outline: as §2

[13] = tested on: wheat (Triticum aestivum); assay: Test A postemergence; settings: Triticum aestivum, post-emergence, 240 h, Postemergence; for plant injury at 125 g/ha: 125 g ai/ha, visual rating about 10 d after treatment, read-out: Wheat plant response rating (0 to 100 scale); for plant injury at 500 g/ha: 500 g ai/ha, visual injury, 0 to 100 scale (0 no effect, 100 complete control), approx. 10 d, read-out: Plant response rating, Wheat
Outline: as §2

[14] = 0 to 100 scale where 0 is no effect and 100 is complete control, read-out: Barnyardgrass plant response rating
[15] = 0 to 100 scale (0 no effect, 100 complete control), read-out: Plant response rating, Barnyardgrass
[16] = 0 to 100 scale (0 no effect, 100 complete control), read-out: Plant response rating, Ragweed
[17] = 0 to 100 scale (0 no effect, 100 complete control), read-out: Plant response rating, Foxtail, Giant
[18] = 0 to 100 scale (0 no effect, 100 complete control), read-out: Plant response rating, Pigweed
[19] = 0 to 100 scale (0 no effect, 100 complete control), read-out: Plant response rating, Kochia

Compound	pest or weed control at 250 g/ha [3] [%]	pest or weed control at 125 g/ha [4, 15] [%]	pest or weed control at 125 g/ha [5, 16] [%]	pest or weed control at 125 g/ha [6] [%]	pest or weed control at 125 g/ha [7, 17] [%]	pest or weed control at 125 g/ha [8, 18] [%]	pest or weed control at 125 g/ha (Kochia (Kochia scoparia); [19]) [%]	pest or weed control at 125 g/ha [9] [%]	pest or weed control at 500 g/ha [9] [%]	pest or weed control at 125 g/ha [10] [%]	pest or weed control at 500 g/ha [10] [%]	pest or weed control at 125 g/ha [11] [%]	pest or weed control at 500 g/ha [11] [%]	pest or weed control at 125 g/ha [12] [%]	pest or weed control at 500 g/ha [12] [%]	plant injury at 125 g/ha [13] [%]	plant injury at 500 g/ha [13] [%]	other results
CN1C[C@H](c2ccc3c(c2)CCO3)[C@@H](C(=O)Nc2ccccc2F)C1=O [Compound 1321]	0	90	50	0	90	0	50	30	50	20	50	90	90	0	0	20	50	pest or weed control at 250 g/ha [1, 14]: 90%; pest or weed control at 250 g/ha ([2]; 0 to 100 scale where 0 is no effect and 100 is complete control, read-out: Ducksalad plant response rating): 85%; pest or weed control at 250 g/ha (rice (Oryra sativa); 0 to 100 scale where 0 is no effect and 100 is complete control, read-out: Rice plant response rating): 0%; pest or weed control at 500 g/ha [4, 14]: 100%; pest or weed control at 500 g/ha ([5]; 0 to 100 scale where 0 is no effect and 100 is complete control, read-out: Ragweed plant response rating): 50%; pest or weed control at 500 g/ha ([7]; 0 to 100 scale where 0 is no effect and 100 is complete control, read-out: Foxtail, Giant plant response rating): 100%; pest or weed control at 500 g/ha ([8]; 0 to 100 scale where 0 is no effect and 100 is complete control, read-out: Pigweed plant response rating): 0%; pest or weed control at 500 g/ha (Kochia (Kochia scoparia); 0 to 100 scale where 0 is no effect and 100 is complete control, read-out: Kochia plant response rating): 80%
CN1C[C@H](c2ccc(C(F)(F)F)cc2)[C@@H](C(=O)Nc2cccc(C#N)c2F)C1=O [Compound 1381]	0	90	70	30	100	90	80	40	60	50	60	90	90	70	70	30	50	pest or weed control at 250 g/ha ([1]; 360 h, visually evaluated after 13 to 15 d, read-out: Plant response rating, Barnyardgrass (0 to 100 scale where 0 is no effect and 100 is complete control)): 65%; pest or weed control at 250 g/ha ([2]; 360 h, visually evaluated after 13 to 15 d, read-out: Plant response rating, Ducksalad (0 to 100 scale where 0 is no effect and 100 is complete control)): 100%; pest or weed control at 250 g/ha (rice (Oryra sativa); 360 h, visually evaluated after 13 to 15 d, read-out: Plant response rating, Rice (0 to 100 scale where 0 is no effect and 100 is complete control)): 0%; pest or weed control at 500 g/ha [4, 15]: 100%; pest or weed control at 500 g/ha [5, 16]: 80%; pest or weed control at 500 g/ha ([6]; 500 g ai/ha, preemergence): 50%; pest or weed control at 500 g/ha [7, 17]: 100%; pest or weed control at 500 g/ha [8, 18]: 100%; pest or weed control at 500 g/ha (Kochia (Kochia scoparia); [19]): 80%
